Measured values from patent publication US10981932B2, “Macrocyclic indole derivatives” (Bayer Aktiengesellschaft, priority 2016, dated 2021).
Structures can show the parent of a compound that is named as a salt.

What was measured:
MCL-1 = MCL-1 (Homo sapiens, UniProt Q07820); test: Protein-protein interaction assay MCL-1/Noxa BH3 peptide (MCL-1 assay), TR-FRET; format: binding; conditions: MBP-MCL-1 / Noxa BH3-derived peptide, median
Method in brief: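 MBP-MCL-1 (1 nM final) was preincubated 10 min at 22 °C with compounds (11 concentrations, 0.1 nM–20 μM, duplicates) in Tris pH 7 buffer with NaCl, KF, Tween-20, DTT and BGG. After 1 h at 22 °C in the dark plus overnight at 4 °C, anti-MBP Eu-cryptate/streptavidin-XL665 TR-FRET was read; IC50 came from a 4-parameter fit.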

SUDHL5 [1] = test: Induction of caspase-3/7 activity (Caspase-Glo 3/7), SUDHL5; format: cell-based; conditions: caspase-3/7 induction, SUDHL5 cells, 3 h treatment; median
Method in brief: (§1)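 Caspase-Glo 3/7 luminescence measured after 3 h compound exposure at 37 °C in SUDHL10 and SUDHL5 cells. EC50 values come from background-corrected signals, with curve bottom set to 1 and plateau set to maximal induction by the reference compound.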

SUDHL10 [2] = test: Induction of caspase-3/7 activity (Caspase-Glo 3/7), SUDHL10; format: cell-based; conditions: caspase-3/7 induction, SUDHL10 cells, 3 h treatment; median
Method in brief: as §1

SUDHL5 [3] = test: Anti-proliferative effect (CellTiter-Glo, 72 h), SUDHL5; format: cell-based; conditions: SUDHL5 cells, antiproliferation, 72 h incubation, median, read-out: Antiproli SUDHL5 [M] (median)
Method in brief: (§2)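 Anti-proliferative activity is derived from ATP-based luminescence (CellTiter-Glo) in cells exposed to compound for 72 h at 37 °C, set against a time zero plate read at seeding.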

SUDHL10 [4] = test: Anti-proliferative effect (CellTiter-Glo, 72 h), SUDHL10; format: cell-based; conditions: SUDHL10 cells, antiproliferation, 72 h incubation, median, read-out: Antiproli SUDHL10 [M] (median)
Method in brief: as §2

A2780 = test: Anti-proliferative effect (CellTiter-Glo, 72 h), A2780; format: cell-based; conditions: A2780 cells, median, read-out: IC50 antiproliferation assay A2780 [M] (median)
Method in brief: as §2

SUDHL5 [5] = test: Induction of cytotoxicity (CellTiter-Glo, 5 h), SUDHL5; conditions: read-out: Cytotox SUDHL5 [M] (median); SUDHL5 cells, cytotoxicity induction, CellTiter-Glo, 5 h incubation, median
Protocol: Therefore, cytotoxicity assays were run in parallel in SUDHL5 and SUDHL10 cells.
The different cell lines were plated in culture medium (RPMI 1640 [GIBCO #22400-089]supplemented with 10% Fetal Bovine Serum) at a density of 3.300 cells in 30 μl/well in a sterile, solid black, flat bottom, polystyrene, TC-treated 384-well microplate (Corning #3571) using Multidrop Combi Reagent Dispenser. As a control, medium without cells was also added to the plate. Cells were incubated in a humidified incubator at 37° C. overnight. On the next day, the cells were treated with compounds (stock solution, 10 mM in DMSO) using the HP D300 Digital Dispenser in a concentration range of 3.3×10e-5 M (33 μM) to 5×10e-9 M (5 nM) in a single-dot curve with at least 16 dilutions and a DMSO concentration of 0.33%. Rim wells were excluded. The cells were incubated for 5 h hours in a humidified incubator at 37° C. After this incubation, 30 μl of CellTiter-Glo@ Luminescent Cell Viability reagent (Promega, G7573) was added to each well using the Multidrop Combi Reagent Dispenser, followed by 15 min incubation on a shaker at room temperature. Finally, luminescence was read at 0.1 ms, with a gain of 3000 using the PHERAstar FS microplate reader (BMG Labtech).
The Bella DRC Master Sheet was used to calculate IC50s, with fixed CI=0 and C0=1.

SUDHL10 [6] = test: Induction of cytotoxicity (CellTiter-Glo, 5 h), SUDHL10; conditions: read-out: Cytotox SUDHL10 [M] (median); SUDHL10 cells, cytotoxicity induction, CellTiter-Glo, 5 h incubation, median

MCL-1, sequence (Q07820 whole entry): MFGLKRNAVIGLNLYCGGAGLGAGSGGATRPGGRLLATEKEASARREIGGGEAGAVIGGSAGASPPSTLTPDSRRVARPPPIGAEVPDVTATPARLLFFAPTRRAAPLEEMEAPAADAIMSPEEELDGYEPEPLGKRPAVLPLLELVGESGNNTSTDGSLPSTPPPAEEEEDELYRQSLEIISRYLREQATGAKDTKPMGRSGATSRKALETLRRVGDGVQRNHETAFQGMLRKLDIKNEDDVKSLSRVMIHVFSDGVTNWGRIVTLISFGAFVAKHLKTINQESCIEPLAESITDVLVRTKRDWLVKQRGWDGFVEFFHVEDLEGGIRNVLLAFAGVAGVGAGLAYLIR

SMILES | IC50 (MCL-1) [µM] | EC50 (SUDHL5 [1]) [µM] | EC50 (SUDHL10 [2]) [µM] | IC50 (SUDHL5 [3]) [M] | IC50 (SUDHL10 [4]) [M] | IC50 (A2780) [M] | IC50 (SUDHL10 [4]; Homo sapiens, SU-DHL10, 72 h) [M] | IC50 (SUDHL5 [5]) [M] | IC50 (SUDHL10 [6]) [M]
Cc1nn(CCN2CCOCC2)c2c1-c1cccc3c(CCCOc4cccc5ccccc45)c(C(=O)O)n(c13)CCCCOC2 (single isomer, unassigned; enantiomer 2) [Example 097, 3-methyl-1-[2-(morpholin-4-yl)ethyl]-7-[3-(naphthalen-1-yloxy)propyl]-1,10,11,12,13,15-hexahydropyrazolo[4′,3′:9,10][1,6]oxazacycloundecino[8,7,6-hi]indole-carboxylic acid-N-ethylethanamine Salt (Enantiomer 2)] | 0.0589 | > 33 | > 33 | 2.25e-05 | 1.21e-05 | 2.84e-05 | – | 3.05e-05 | > 3.3e-05
Cc1nn(CC(F)(F)F)c2c1-c1cccc3c(CCCOc4cccc5ccccc45)c(C(=O)O)n(c13)CCCCOC2 (single isomer, unassigned; enantiomer 2) [Example 111, 3-methyl-7-[3-(naphthalen-1-yloxy)propyl]-1-(2,2,2-trifluoroethyl)-1,10,11,12,13,15-hexahydropyrazolo[4′,3′:9,10][,6]oxazacycloundecino[8,7,6-hi]indole-8-carboxy ic acid-N-ethylethanamine Salt (Enantiomer 2)] | 0.327 | > 33 | > 33 | > 3.3e-05 | 5.45e-06 | 2.61e-05 | – | > 3.3e-05 | > 3.3e-05
Cn1nc(CN2CCOCC2)c2c1COCC=CCn1c(C(=O)O)c(CCCOc3cccc4ccccc34)c3cccc-2c31 (single isomer, unassigned; enantiomer 2) [Example 134, (E)-1-methyl-3-(morpholin-4-ylmethyl)-7-[3-(naphthalen-1-yloxy)propyl]-1,13,15-tetrahydropyrazolo[4′,3′:9,10][1,6]oxazacycloundecino[8,7,6-hi]indole-8-carboxylic acid-N-ethylethanamine Salt (Enantiomer 2)] | 0.322 | > 33 | > 33 | 2.14e-05 | 1.63e-05 | 2.07e-05 | – | > 3.3e-05 | > 3.3e-05
CCc1c2c(nn1C)CN(C)CCCn1c(C(=O)O)c(CCCOc3cccc4ccccc34)c3ccc(C)c-2c31 (single isomer, unassigned; enantiomer 2) [Example 146, 11-Ethyl-7,10,12-trimethyl-1-[3-(1-naphthyloxy)propyl]-4,5,6,7,8,10-hexahydropyrazolo[3′,4′:7,8][1,5]diazecino[9,10,1-hi]indole-2-carboxylic acid-N-ethylethanamine Salt (Enantiomer 2)] | 0.00901 | > 33 | > 33 | 1.93e-05 | 1.05e-05 | 1.37e-05 | – | 1.66e-05 | 2.67e-05
Cn1nc(CCN2CCOCC2)c2c1COCCCCn1c(C(=O)O)c(CCCOc3cccc4ccccc34)c3cccc-2c31 (single isomer, unassigned; enantiomer 2) [Example 152, 1-methyl-3-(2-(morpholin-4-yl)ethyl-7-[3-(naphthalen-1-yloxy)propyl]-11,10,11,12,13,15-hexahydropyrazolo[4′,3′:9,10][1,6]oxazacycloundecino[8,7,6-hi]indole-8-carboxylic acid-N-ethylethanamine Salt (Enantiomer 2)] | 0.379 | > 33 | > 33 | > 3.3e-05 | 1.76e-05 | > 3.3e-05 | – | > 3.3e-05 | > 3.3e-05
Cc1nn(CC(F)(F)F)c2c1-c1cccc3c(CCCOc4cccc5c4CCCC5)c(C(=O)O)n(c13)CCCCOC2 (single isomer, unassigned; enantiomer 2) [Example 163, 3-methyl-7-[3-(5,6,7,8-tetrahydronaphthalen-1-yloxy)propyl]-1-(2,2,2-trifluoroethyl)-1,10,11,12,13,15-hexahydropyrazolo[4′,3′:9,10][1,6]oxazacycloundecino[8,7,6-hi]indole-8-carboxylic acid-N-ethylethanamine Salt (Enantiomer 2)] | 0.637 | > 33 | > 33 | 1.17e-05 | – | 2.75e-05 | 6.35e-06 | 2.93e-05 | > 3.3e-05
Cn1nc(CN2CC(F)(F)C2)c2c1COCCCCn1c(C(=O)O)c(CCCOc3cccc4ccccc34)c3cccc-2c31 (single isomer, unassigned; enantiomer 2) [Example 182, 3-[(3,3-difluoroazetidin-1-yl)methyl]-1-methyl-7-[3-(naphthalen-1-yloxy)propyl]-1,10,11,12,13,15-hexahydropyrazolo[4′,3′:9,10][1,6]oxazacycloundecino[8,7,6-hi]indole-8-carboxylic acid-N-ethylethanamine Salt (Enantiomer 2)] | 0.122 | > 33 | > 33 | 1.91e-05 | 6.02e-06 | 1.75e-05 | – | > 3.3e-05 | > 3.3e-05
COCc1nn(C)c2c1-c1cccc3c(CCCOc4cccc5ccccc45)c(C(=O)O)n(c13)CCCCN(C)C2 (single isomer, unassigned; enantiomer 2) [Example 185, 3-(methoxymethyl)-1,14-dimethyl-7-[3-(naphthalen-1-yloxy)propyl]-10,11,12,13,14,15-hexahydro-1H-pyrazolo[3′,4′:8,9][1,6]diazacycloundecino[10,11,1-hi]indole-8-carboxylic acid —N-ethylethanamine Salt (Enantiomer 2)] | 0.211 | > 33 | > 33 | 1.98e-05 | 8.53e-06 | 1.88e-05 | – | 2.75e-05 | > 3.3e-05

Second part, led by results:

IC50 (MCL-1) [µM] | EC50 (SUDHL5 [1]) [µM] | EC50 (SUDHL10 [2]) [µM] | IC50 (SUDHL5 [3]) [M] | IC50 (SUDHL10 [4]) [M] | IC50 (A2780) [M] | IC50 (SUDHL10 [4]; Homo sapiens, SU-DHL10, 72 h) [M] | SMILES | IC50 (SUDHL5 [5]) [M] | IC50 (SUDHL10 [6]) [M]
0.0728 | > 33 | > 33 | 1.72e-05 | 7e-06 | 1.36e-05 | – | COCCn1nc2c(c1C1CC1)-c1cccc3c(CCCOc4cccc5ccccc45)c(C(=O)O)n(c13)CCCCOC2 (single isomer, unassigned; enantiomer 2) [Example 086, 3-Cyclopropyl-2-(2-methoxyethyl)-7-[3-(naphthalen-1-yloxy)propyl]-2,10,11,12,13,15-hexahydropyrazolo[4′3′:9,10][1,6]oxazacycloundecino[8,7,6-hi]indole-carboxylic acid-N-ethylethanamine Salt (Enantiomer 2)] | 3.15e-05 | > 3.3e-05
0.12 | > 33 | > 33 | 3.11e-05 | 1.64e-05 | 2.58e-05 | – | Cc1c2c(nn1C1CC1)COCCCCn1c(C(=O)O)c(CCCOc3cccc4ccccc34)c3cccc-2c31 (single isomer, unassigned; enantiomer 2) [Example 094, 2-cyclopropyl-3-methyl-7-[3-(naphthalen-1-yloxy)propyl]-2,10,11,12,13,15-hexahydropyrazolo[4′,3′:9,10][1,6]oxazacycloundecino[8,7,6-hi]indole-8-carboxylic acid-N-ethylethanamine Salt (Enantiomer 2)] | > 3.3e-05 | > 3.3e-05
0.106 | > 33 | > 33 | 2e-05 | 1.02e-05 | 2.21e-05 | – | COCCn1nc(C2CC2)c2c1COCCCCn1c(C(=O)O)c(CCCOc3cccc4ccccc34)c3cccc-2c31 (single isomer, unassigned; enantiomer 2) [Example 104, 3-cyclopropyl-1-(2-methoxyethyl)-7-[3-(naphthalen-1-yloxy)propyl]-1,10,11,12,13,15-hexahydropyrazolo[4′,3′:9,10][1,6]oxazacycloundecino[8,7,6-hi]indole-8-carboxylic acid-N-ethylethanamine Salt (Enantiomer 2)] | > 3.3e-05 | > 3.3e-05
0.0543 | > 33 | > 33 | 1.51e-05 | 1.17e-05 | 1.52e-05 | – | COCCn1nc2c(c1C)-c1cccc3c(CCCOc4cccc5ccccc45)c(C(=O)O)n(c13)CCCCOC2 (single isomer, unassigned; enantiomer 2) [Example 108, 2-(2-methoxyethyl)-3-methyl-7-[3-(naphthalen-1-yloxy)propyl]-2,10,11,12,13,15-hexahydropyrazolo[4′,3′:9,10][1,6]oxazacycloundecino[8,7,6-hi]indole-8-carboxylic acid-N-ethylethanamine Salt (Enantiomer 2)] | > 3.3e-05 | > 3.3e-05
